Data as given in PubChem BioAssay (NCI).
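Where inhibition never reached the appropriate level, the endpoint shown equals the highest concentration tested. Otherwise, values were interpolated linearly from a five-concentration, 48-hour dose response in 96-well plates. TGI is the concentration that stops growth completely.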

Legend:
Assay in all cases: NCI anticancer screen, dose series, 48 h
[1] = tested on: A498 renal
[2] = tested on: A549 NSCLC
[3] = tested on: ACHN renal
[4] = tested on: BT-549 breast
[5] = tested on: CAKI-1 renal
[6] = tested on: CCRF-CEM leukemia
[7] = tested on: COLO 205 colon
[8] = tested on: DU-145 prostate
[9] = tested on: EKVX NSCLC
[10] = tested on: HCC-2998 colon
[11] = tested on: HCT-116 colon
[12] = tested on: HCT-15 colon
[13] = tested on: HOP-62 NSCLC
[14] = tested on: HS 578T breast
[15] = tested on: HT29 colon
[16] = tested on: IGROV1 ovarian
[17] = tested on: K-562 leukemia
[18] = tested on: KM12 colon
[19] = tested on: LOX IMVI melanoma
[20] = tested on: M14 melanoma
[21] = tested on: MALME-3M melanoma
[22] = tested on: MCF7 breast
[23] = tested on: MDA-MB-231 breast
[24] = tested on: MDA-MB-435
[25] = tested on: MDA-N
[26] = tested on: MOLT-4 leukemia
[27] = tested on: NCI-H226 lung
[28] = tested on: NCI-H23 lung
[29] = tested on: NCI-H460 lung
[30] = tested on: NCI-H522 lung
[31] = tested on: NCI/ADR-RES ovarian
[32] = tested on: OVCAR-4 ovarian
[33] = tested on: OVCAR-5 ovarian
[34] = tested on: PC-3 prostate
[35] = tested on: RPMI-8226 leukemia
[36] = tested on: RXF 393 renal
[37] = tested on: SF-268 CNS
[38] = tested on: SF-295 CNS
[39] = tested on: SF-539 CNS
[40] = tested on: SK-MEL-2 melanoma
[41] = tested on: SK-MEL-28 melanoma
[42] = tested on: SK-MEL-5 melanoma
[43] = tested on: SK-OV-3 ovarian
[44] = tested on: SN12C renal
[45] = tested on: SNB-19 CNS
[46] = tested on: SNB-75 CNS
[47] = tested on: SR leukemia
[48] = tested on: SW-620 colon
[49] = tested on: T-47D breast
[50] = tested on: TK-10 renal
[51] = tested on: U251 CNS
[52] = tested on: UACC-257 melanoma
[53] = tested on: UACC-62 melanoma
[54] = tested on: UO-31 renal
[55] = tested on: 786-0 renal
[56] = tested on: HL-60(TB) leukemia
[57] = tested on: OVCAR-3 ovarian
[58] = tested on: OVCAR-8 ovarian

O=C1C=CC(=O)c2c1ccc1c3ccccc3n(-c3ccccc3[N+](=O)[O-])c21
TGI [1]: 35.6 µM | TGI [2]: > 64.8 µM | TGI [3]: 3.46 µM | TGI [4]: 14.6 µM | TGI [5]: 3.64 µM | TGI [6]: > 31.6 µM | TGI [7]: 4.35 µM | TGI [8]: 18.9 µM | TGI [9]: 23.7 µM | TGI [10]: 13.2 µM | TGI [11]: > 25.3 µM | TGI [12]: 9 µM | TGI [13]: > 53.7 µM | TGI [14]: 36.4 µM | TGI [15]: > 74.1 µM | TGI [16]: 4.9 µM | TGI [17]: > 100 µM | TGI [18]: 35.8 µM | TGI [19]: 4.76 µM | TGI [20]: 4.58 µM | TGI [21]: 5.63 µM | TGI [22]: 20 µM | TGI [23]: 7.88 µM | TGI [24]: 5.6 µM | TGI [25]: > 21.6 µM | TGI [26]: > 100 µM | TGI [27]: 50.3 µM | TGI [28]: 19.4 µM | TGI [29]: > 100 µM | TGI [30]: 2.87 µM | TGI [31]: 20.5 µM | TGI [32]: 10.2 µM | TGI [33]: 37.5 µM | TGI [34]: 12.4 µM | TGI [35]: > 24.1 µM | TGI [36]: 3.24 µM | TGI [37]: 6.82 µM | TGI [38]: > 56.7 µM | TGI [39]: > 65.2 µM | TGI [40]: 31.6 µM | TGI [41]: 50.8 µM | TGI [42]: 21.2 µM | TGI [43]: 33 µM | TGI [44]: > 71.5 µM | TGI [45]: 29.3 µM | TGI [46]: 35.7 µM | TGI [47]: > 100 µM | TGI [48]: > 100 µM | TGI [49]: 5.19 µM | TGI [50]: 5.89 µM | TGI [51]: 21.2 µM | TGI [52]: 13.1 µM | TGI [53]: 10.2 µM | TGI [54]: 2.87 µM

COc1cc2c(cc1OCCCCOc1cc3c(cc1OC)C(=O)N1CCC[C@H]1C(=O)N3)N=C[C@@H]1CCCN1C2=O
TGI [55]: 39.2 µM | TGI [1]: 19.9 µM | TGI [2]: 44.9 µM | TGI [3]: 27.9 µM | TGI [4]: 16.8 µM | TGI [5]: 25.5 µM | TGI [7]: 7.41 µM | TGI [8]: 44.3 µM | TGI [9]: 27.6 µM | TGI [10]: 26.3 µM | TGI [11]: > 100 µM | TGI [12]: 24.6 µM | TGI [56]: 37.3 µM | TGI [13]: 44.5 µM | TGI [14]: 27.6 µM | TGI [15]: 43.2 µM | TGI [16]: 20.7 µM | TGI [17]: 6.88 µM | TGI [18]: 22.2 µM | TGI [19]: 4.22 µM | TGI [20]: 33 µM | TGI [21]: 22.5 µM | TGI [22]: 18.1 µM | TGI [23]: 8.7 µM | TGI [24]: 14.4 µM | TGI [25]: 19.6 µM | TGI [26]: 4.69 µM | TGI [27]: 26.7 µM | TGI [28]: 25.4 µM | TGI [29]: 43.9 µM | TGI [30]: 3.24 µM | TGI [31]: 29 µM | TGI [57]: 25.7 µM | TGI [32]: 27.7 µM | TGI [33]: 33 µM | TGI [58]: 27.8 µM | TGI [34]: 19.4 µM | TGI [35]: 3.66 µM | TGI [36]: 14.8 µM | TGI [37]: 14.8 µM | TGI [38]: 26 µM | TGI [40]: 20.1 µM | TGI [41]: 30.8 µM | TGI [42]: 14.8 µM | TGI [44]: 21.4 µM | TGI [45]: 20.5 µM | TGI [46]: 18.1 µM | TGI [47]: 4.59 µM | TGI [48]: 14.6 µM | TGI [49]: 28.7 µM | TGI [50]: 27.4 µM | TGI [51]: 14 µM | TGI [52]: 29.3 µM | TGI [53]: 10.3 µM | TGI [54]: 28 µM
